In patent US12398111B2, “Triazine compounds and pharmaceutical use thereof” (Japan Tobacco Inc., priority 2014, dated 2025):

What follows are compounds tested against T1, human mPGES-1 (Homo sapiens, UniProt O14684) (assay: Evaluation of human mPGES-1 enzyme inhibitory activity (PGE2 measured by HTRF, microsome fraction of CHO-S cells expressing human mPGES-1)). Settings: IC50 value; microsome fraction of CHO-S cells expressing human mPGES-1, PGE2 by HTRF.
T1 construct: made in house; host or cells: FreeStyle CHO-S cells (Chinese hamster ovary), transient transfection with pcDNA3.1(+)/human mPGES-1; microsome fraction used
T1 sequence (O14684 1-152): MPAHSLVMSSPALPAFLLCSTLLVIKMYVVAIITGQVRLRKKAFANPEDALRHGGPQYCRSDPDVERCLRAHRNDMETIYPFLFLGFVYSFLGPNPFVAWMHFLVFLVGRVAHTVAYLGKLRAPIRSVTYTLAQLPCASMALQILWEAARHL
Format: biochemical
Procedure: That is, the amount of PGE2 produced by human mPGES-1 in the presence of a test article was measured by the HTRF (homogeneous time resolved fluorescence) method, based on which the human mPGES-1 enzyme inhibitory activity of the test article was determined.
1) Preparation of Human mPGES-1 Expressing Cell Microsome Fraction
A DNA fragment containing human mPGES-1, which is added with a BamHI recognition cleavage sequence immediately before the translation initiation codon and an EcoRI recognition cleavage sequence immediately after the translation termination codon was amplified by the PCR (Polymerase Chain Reaction) method using a human mPGES-1 expression plasmid DNA (pME-18S/iPGES-1) prepared in-house as a template. The purified DNA fragment was digested with BamHI and EcoRI, and ligated to pcDNA3.1(+) (Invitrogen, model number V790-20), similarly digested with BamHI and EcoRI, by using a DNA Ligation kit ver.2.1 (Takara Bio, model number 6022). The human mPGES-1 expression plasmid DNA was isolated from Escherichia coli DH5a (TOYOBO, model number DNA-903) transformed with the obtained ligation product. The base sequence of human mPGES-1 cloned to a vector was determined by the Dye Terminator method by using BigDye Terminator v3.1 Cycle Sequencing Kit (Applied Biosystems, #4337455).
Human mPGES-1 expression plasmid DNA was transfected into Chinese hamster ovary-derived cells (FreeStyle CHO-S Cell, Invitrogen, #R800-07) by using a transgene reagent (FreeStyle MAX Reagent (Invitrogen, #16447-100)), and cultured with shaking (8% CO2, 37° C.) in a medium containing 8 mmol/L L-glutamine (GIBCO FreeStyle CHO Expression Medium, Invitrogen, #12651-022) for 48 hr.
The CHO-S cells were suspended in Homogenate Buffer (100 mmol/L potassium phosphate (pH 7.4), 250 mmol/L Sucrose, 100 mmol/L EDTA, complete EDTA free (Roche, #1873580)). Using an ultrasonic disruptor UD-201 (Tomy Seiko), the suspended cells were disrupted at output:3, duty cycle:50 for 30 seconds. The precipitate was removed by centrifugation (1,000×g, 5 min, 4° C.), is and the supernatant was centrifuged (5,000×g, 10 min, 4° C.). The supernatant was further centrifuged (105,000×g, 60 min, 4° C.). The obtained precipitate was suspended in Resuspension Buffer (100 mmol/L potassium phosphate (pH 7.4), 250 mmol/L sucrose, 100 mmol/L EDTA, 10% glycerol) to give a microsome fraction.
The protein concentration of the microsome fraction was measured by the Bradford method (Protein Assay Kit, Bio-Rad). The microsome fraction was rapidly frozen in liquid nitrogen and preserved at −80° C. Human mPGES-1 in the microsome fraction was detected by Western Blot using rabbit anti-mPGES-1 polyclonal antibody (ThermoFisher Scientific, #PA1-10264).
2) Evaluation of Human mPGES-1 Enzyme Inhibitory Activity
A test article solution diluted with 0.1 mol/L potassium phosphate, pH 7.4 (hereinafter to be referred to as KPB) or DMSO (Nacalai Tesque, #13407-45) was added at 5 μL/well to 96 well V-bottom plate (Corning, #3363). The final DMSO concentration during the reaction was set to 2% (v/v). Furthermore, a microsome fraction of CHO-S cells expressing human mPGES-1, which was diluted with reduced GSH (12.5 mmol/L KPB solution, SIGMA, #G6529-25G) such that the protein concentration was 5 μg/mL, was added at 20 μL/well. The amount of the microsome fraction used is the amount of microsome fraction within a range where the amount of PGE2 produced under the reaction conditions shown below and the amount of microsome fraction used show linearity. To the blank was added reduced GSH (12.5 mmol/L KPB solution) at 20 μL/well.

SMILES | IC50
CO[C@](C)(C(=O)NC(C)c1ccc(Cl)c(-c2nc(O)nc(-c3ccc(F)c(C)c3)n2)c1)C(F)(F)F (single isomer, unassigned) [Example 1-189] | 1100 nM
CO[C@](C)(C(=O)NC(C)c1ccc(Cl)c(-c2nc(O)nc(-c3ccc(OCC(C)(C)C)cc3)n2)c1)C(F)(F)F (single isomer, unassigned) [Example 1-201] | 306 nM
CC1CCC(CO)(C(=O)NCc2ccc(Cl)c(-c3nc(O)nc(-c4ccccc4)n3)c2)CC1 (single isomer, unassigned) [Example 1-256] | 98 nM
COC1CCC2(CC1)CN(Cc1ccc(Cl)c(-c3nc(O)nc(-c4ccccc4)n3)c1)C2=O (single isomer, unassigned) [Example 1-267] | 150 nM
Cc1ccc(F)cc1-c1nc(O)nc(-c2ccc(C(F)(F)F)cc2)n1 [Example 1-1] | 813 nM
Cc1ccc(C)c(-c2nc(O)nc(-c3ccc(C(F)(F)F)cc3)n2)c1 [Example 1-2] | 138 nM
Cc1ccc(Cl)cc1-c1nc(O)nc(-c2ccc(C(F)(F)F)cc2)n1 [Example 1-3] | 164 nM
Oc1nc(-c2ccc(C(F)(F)F)cc2)nc(-c2cc(OC(F)(F)F)ccc2Cl)n1 [Example 1-5] | 672 nM
COc1ccc(Cl)c(-c2nc(O)nc(-c3ccc(C(F)(F)F)cc3)n2)c1 [Example 1-6] | 163 nM
Oc1ccc(Cl)c(-c2nc(O)nc(-c3ccc(C(F)(F)F)cc3)n2)c1 [Example 1-7] | 652 nM
O=C(O)c1ccc(Cl)c(-c2nc(O)nc(-c3ccc(C(F)(F)F)cc3)n2)c1 [Example 1-8] | 27000 nM
Cc1ccc(C(F)(F)F)cc1-c1nc(O)nc(-c2ccc(C(F)(F)F)cc2)n1 [Example 1-9] | 601 nM
CC(=O)c1ccc(Cl)c(-c2nc(O)nc(-c3ccc(C(F)(F)F)cc3)n2)c1 [Example 1-13] | 397 nM
CCc1ccc(C)c(-c2nc(O)nc(-c3ccc(C(F)(F)F)cc3)n2)c1 [Example 1-14] | 1410 nM
NCc1ccc(Cl)c(-c2nc(O)nc(-c3ccc(C(F)(F)F)cc3)n2)c1 [Example 1-17] | 735 nM
CC(O)c1ccc(Cl)c(-c2nc(O)nc(-c3ccc(C(F)(F)F)cc3)n2)c1 (stereo not drawn) [Example 1-18] | 114 nM
COCc1ccc(Cl)c(-c2nc(O)nc(-c3ccc(C(F)(F)F)cc3)n2)c1 [Example 1-19] | 411 nM
CC(=O)N(C)Cc1ccc(Cl)c(-c2nc(O)nc(-c3ccc(C(F)(F)F)cc3)n2)c1 [Example 1-21] | 988 nM
O=C(O)Cc1ccc(Cl)c(-c2nc(O)nc(-c3ccc(C(F)(F)F)cc3)n2)c1 [Example 1-23] | 134 nM
CC(=O)OCc1ccc(Cl)c(-c2nc(O)nc(-c3ccc(C(F)(F)F)cc3)n2)c1 [Example 1-25] | 108 nM
CN(C)C(=O)Cc1ccc(Cl)c(-c2nc(O)nc(-c3ccc(C(F)(F)F)cc3)n2)c1 [Example 1-40] | 2230 nM

Further lines, results first:

IC50 | SMILES
1.6 nM | CO[C@](C)(C(=O)NC(C)c1ccc(Cl)c(-c2nc(O)nc(-c3ccc(F)c(C)c3)n2)c1)C(F)(F)F (single isomer, unassigned) [Example 1-188]
10 nM | CO[C@](C)(C(=O)NC(C)c1ccc(Cl)c(-c2nc(O)nc(-c3ccc(OCC(C)(C)C)cc3)n2)c1)C(F)(F)F (single isomer, unassigned) [Example 1-200]
17 nM | CC1CCC2(CC1)CN(Cc1ccc(Cl)c(-c3nc(O)nc(-c4ccccc4)n3)c1)C2=O (single isomer, unassigned) [Example 1-257]
11 nM | CC(C)(C)C1CCC2(CC1)CN(Cc1ccc(Cl)c(-c3nc(O)nc(-c4ccccc4)n3)c1)C2=O (single isomer, unassigned) [Example 1-266, 7-tert-butyl-2-[4-chloro-3-(4-hydroxy-6-phenyl-1,3,5-triazin-2-yl)benzyl]-2-azaspiro[3.5]nonan-1-one]
25 nM | Cc1ccc(Cl)c(-c2nc(O)nc(-c3ccc(C(F)(F)F)cc3)n2)c1 [Example 1-4]
15 nM | OCc1ccc(Cl)c(-c2nc(O)nc(-c3ccc(C(F)(F)F)cc3)n2)c1 [Example 1-12]
7.4 nM | CC(C)(C)OC(=O)NCc1ccc(Cl)c(-c2nc(O)nc(-c3ccc(C(F)(F)F)cc3)n2)c1 [Example 1-15]
10 nM | CC(=O)NCc1ccc(Cl)c(-c2nc(O)nc(-c3ccc(C(F)(F)F)cc3)n2)c1 [Example 1-16]
1.6 nM | CS(=O)(=O)NCc1ccc(Cl)c(-c2nc(O)nc(-c3ccc(C(F)(F)F)cc3)n2)c1 [Example 1-20]
2.7 nM | COC(=O)NCc1ccc(Cl)c(-c2nc(O)nc(-c3ccc(C(F)(F)F)cc3)n2)c1 [Example 1-22]
0.6 nM | CC(C)(C)C(=O)NCc1ccc(Cl)c(-c2nc(O)nc(-c3ccc(C(F)(F)F)cc3)n2)c1 [Example 1-24]
18 nM | CNC(=O)Cc1ccc(Cl)c(-c2nc(O)nc(-c3ccc(C(F)(F)F)cc3)n2)c1 [Example 1-26]
1 nM | CCC(=O)NCc1ccc(Cl)c(-c2nc(O)nc(-c3ccc(C(F)(F)F)cc3)n2)c1 [Example 1-27]
0.6 nM | CC(C)C(=O)NCc1ccc(Cl)c(-c2nc(O)nc(-c3ccc(C(F)(F)F)cc3)n2)c1 [Example 1-28]
1.1 nM | O=C(NCc1ccc(Cl)c(-c2nc(O)nc(-c3ccc(C(F)(F)F)cc3)n2)c1)C1CCCCC1 [Example 1-29]
0.6 nM | O=C(NCc1ccc(Cl)c(-c2nc(O)nc(-c3ccc(C(F)(F)F)cc3)n2)c1)C1CCCC1 [Example 1-30]
1 nM | CCS(=O)(=O)NCc1ccc(Cl)c(-c2nc(O)nc(-c3ccc(C(F)(F)F)cc3)n2)c1 [Example 1-31]
0.7 nM | CC(C)(C)S(=O)(=O)NCc1ccc(Cl)c(-c2nc(O)nc(-c3ccc(C(F)(F)F)cc3)n2)c1 [Example 1-32]
0.8 nM | CC(C)S(=O)(=O)NCc1ccc(Cl)c(-c2nc(O)nc(-c3ccc(C(F)(F)F)cc3)n2)c1 [Example 1-33]
5.9 nM | CN(C)C(=O)NCc1ccc(Cl)c(-c2nc(O)nc(-c3ccc(C(F)(F)F)cc3)n2)c1 [Example 1-34]
22 nM | CNC(=O)NCc1ccc(Cl)c(-c2nc(O)nc(-c3ccc(C(F)(F)F)cc3)n2)c1 [Example 1-35]
0.7 nM | CCCC(=O)NCc1ccc(Cl)c(-c2nc(O)nc(-c3ccc(C(F)(F)F)cc3)n2)c1 [Example 1-36]
0.8 nM | CC(C)CC(=O)NCc1ccc(Cl)c(-c2nc(O)nc(-c3ccc(C(F)(F)F)cc3)n2)c1 [Example 1-37]
1.5 nM | CCOC(=O)NCc1ccc(Cl)c(-c2nc(O)nc(-c3ccc(C(F)(F)F)cc3)n2)c1 [Example 1-38]
1.9 nM | CC(C)OC(=O)NCc1ccc(Cl)c(-c2nc(O)nc(-c3ccc(C(F)(F)F)cc3)n2)c1 [Example 1-39]
2.3 nM | CC(C)(C)NC(=O)Cc1ccc(Cl)c(-c2nc(O)nc(-c3ccc(C(F)(F)F)cc3)n2)c1 [Example 1-41]
1 nM | O=S(=O)(NCc1ccc(Cl)c(-c2nc(O)nc(-c3ccc(C(F)(F)F)cc3)n2)c1)C1CCCC1 [Example 1-42]
2 nM | CC(C)(C)C(=O)NCc1ccc(Cl)c(-c2nc(O)nc(-c3ccccc3)n2)c1 [Example 1-43]

Same assay, conditions: at 30 μM test article

inhibition at 30 µM | SMILES
5% | Cc1ccc(C(=O)O)cc1-c1nc(O)nc(-c2ccc(C(F)(F)F)cc2)n1 [Example 1-10]
42% | Cc1ccc(C(N)=O)cc1-c1nc(O)nc(-c2ccc(C(F)(F)F)cc2)n1 [Example 1-11]
